Patent publication US9969694B2, “N-(arylalkyl)-N′-pyrazolyl-urea, thiourea, guanidine and cyanoguanidine compounds as TrkA kinase inhibitors” (Array BioPharma Inc., priority 2012, dated 2018)

Target: T1, His-tagged recombinant human TrkA (Homo sapiens, UniProt P04629)
T1 construct: 6HIS tagged cytoplasmic domain from Invitrogen, Catalog No. PV3144; purchased Invitrogen PV3144
Assay: TrkA Kinase Binding Assay (LanthaScreen Eu)
Conditions: averaged IC50; TR-FRET binding, 60 min, 22° C.; read-out: TrkA Enzyme IC50
In short: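 TR-FRET tracer displacement: 5 nM His-tagged TrkA cytoplasmic domain with 4 nM Tracer 236, biotinylated anti-His and Eu-streptavidin in pH 7.5 MOPS buffer, 2% DMSO, 60 min at 22 °C. 665/615 nm emission ratio gave percent of control; IC50 from four-parameter fit.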

T1 sequence (P04629 440-796 limits assumed): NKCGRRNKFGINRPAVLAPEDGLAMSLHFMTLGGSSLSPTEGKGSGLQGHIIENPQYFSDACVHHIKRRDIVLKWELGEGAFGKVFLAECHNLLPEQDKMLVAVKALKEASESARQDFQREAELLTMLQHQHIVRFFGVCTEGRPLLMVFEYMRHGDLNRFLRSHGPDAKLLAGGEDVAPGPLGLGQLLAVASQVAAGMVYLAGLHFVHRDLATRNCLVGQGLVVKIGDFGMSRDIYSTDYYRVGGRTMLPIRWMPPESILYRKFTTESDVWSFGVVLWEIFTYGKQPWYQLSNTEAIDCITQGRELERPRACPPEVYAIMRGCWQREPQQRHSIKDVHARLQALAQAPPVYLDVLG

Row | IC50 [µM] | SMILES
1 | < 0.1 | COCc1ccc(OC(F)(F)F)c(CNC(=O)Nc2c(C)c(OCC3CCN(C)CC3)nn2-c2ccccc2)c1 [Example 93, 1-(5-(methoxymethyl)-2-(trifluoromethoxy)benzyl)-3-(4-methyl-3-((1-methylpiperidin-4-yl)methoxy)-1-phenyl-1H-pyrazol-5-yl)urea]
2 | < 0.1 | COCc1ccc(OC(F)(F)F)c(CNC(=O)Nc2c(C)c(OC3CC4(CCN4C)C3)nn2-c2ccccc2)c1 (centres unmarked) [Example 94, 1-(5-(methoxymethyl)-2-(trifluoromethoxy)benzyl)-3-(4-methyl-3-((1-methyl-1-azaspiro[3.3]heptan-6-yl)oxy)-1-phenyl-1H-pyrazol-5-yl)urea 2,2,2-trifluoroacetate]
3 | < 0.1 | COCc1ccc(OC(F)(F)F)c(CNC(=O)Nc2c(C)c(O[C@@H]3CCNC[C@H]3F)nn2-c2ccccc2)c1 [Example 95, 1-(3-(((3R,4R)-3-fluoropiperidin-4-yl)oxy)-4-methyl-1-phenyl-1H-pyrazol-5-yl)-3-(5-(methoxymethyl)-2-(trifluoromethoxy)benzyl)urea]
4 | < 0.1 | COCc1ccc(OC(F)(F)F)c(CNC(=O)Nc2c(C)c(OC[C@H](C)N)nn2-c2ccccc2)c1 [Example 96, (S)-1-(3-(2-aminopropoxy)-4-methyl-1-phenyl-1H-pyrazol-5-yl)-3-(5-(methoxymethyl)-2-(trifluoromethoxy)benzyl)urea]
5 | < 0.1 | COCc1ccc(OC(F)(F)F)c(CNC(=O)Nc2c(C)c(OC[C@@H](C)N)nn2-c2ccccc2)c1 [Example 97, (R)-1-(3-(2-aminopropoxy)-4-methyl-1-phenyl-1H-pyrazol-5-yl)-3-(5-(methoxymethyl)-2-(trifluoromethoxy)benzyl)urea]
6 | < 0.1 | COCc1ccc(OC(F)(F)F)c(CNC(=O)Nc2c(C)c(O[C@@H]3CCN(C)C[C@H]3F)nn2-c2ccccc2)c1 [Example 98, 1-(3-(((3R,4R)-3-fluoro-1-methylpiperidin-4-yl)oxy)-4-methyl-1-phenyl-1H-pyrazol-5-yl)-3-(5-(methoxymethyl)-2-(trifluoromethoxy)benzyl)urea]
7 | < 0.1 | COCc1ccc(OC(F)(F)F)c(CNC(=O)Nc2c(C)c(O[C@@H]3CCNC[C@@H]3F)nn2-c2ccccc2)c1 [Example 99, 1-(3-(((3S,4R)-3-fluoropiperidin-4-yl)oxy)-4-methyl-1-phenyl-1H-pyrazol-5-yl)-3-(5-(methoxymethyl)-2-(trifluoromethoxy)benzyl)urea]
8 | < 0.1 | COCc1ccc(OC(F)(F)F)c(CNC(=O)Nc2c(C)c(O[C@@H]3CCN(C)C[C@@H]3F)nn2-c2ccccc2)c1 [Example 101, 1-(3-(((3S,4R)-3-fluoro-1-methylpiperidin-4-yl)oxy)-4-methyl-1-phenyl-1H-pyrazol-5-yl)-3-(5-(methoxymethyl)-2-(trifluoromethoxy)benzyl)urea]
9 | < 0.1 | COCc1ccc(OC(F)(F)F)c(CNC(=O)Nc2c(C)c(OC[C@H]3COCCN3)nn2-c2ccccc2)c1 [Example 102, (R)-1-(5-(methoxymethyl)-2-(trifluoromethoxy)benzyl)-3-(4-methyl-3-(morpholin-3-ylmethoxy)-1-phenyl-1H-pyrazol-5-yl)urea]
10 | < 0.1 | COCc1ccc(OC(F)(F)F)c(CNC(=O)Nc2c(C)c(OC[C@@H]3COCCN3)nn2-c2ccccc2)c1 [Example 103, (S)-1-(5-(methoxymethyl)-2-(trifluoromethoxy)benzyl)-3-(4-methyl-3-(morpholin-3-ylmethoxy)-1-phenyl-1H-pyrazol-5-yl)urea]

Row | SMILES | IC50 [µM]
11 | COCc1ccc(OC(F)(F)F)c(CNC(=O)Nc2c(C)c(O[C@H]3C[C@H](N)C3)nn2-c2ccccc2)c1 [Example 100, 1-(3-((1r,3r)-3-aminocyclobutoxy)-4-methyl-1-phenyl-1H-pyrazol-5-yl)-3-(5-(methoxymethyl)-2-(trifluoromethoxy)benzyl)urea] | < 0.1
